Results from patent US11840686B2, “Modulation of prekallikrein (PKK) expression” (Ionis Pharmaceuticals, Inc., priority 2013, dated 2023).
Strand notation (5' to 3'): a small letter for the sugar, then the base; units joined by * are phosphorothioate-linked, units joined directly phosphodiester-linked; [ ] holds rarer units or linkages, { } end groups; capitals alone tell only the bases. e = 2'-O-(2-methoxyethyl) (MOE); [5mC] = 5-methylcytosine; d = 2'-deoxy (DNA)

Each substance was assayed on human PKK mRNA (assay: Antisense inhibition of human PKK mRNA in HepaRG cells, 5,000 nM (Example 2)). Conditions: HepaRG cells, electroporation with 5,000 nM antisense oligonucleotide, approximately 24 hours, PKK mRNA by RT-PCR (RTS3454), relative to untreated control cells; Table 5 experiment.
Format: cell-based
Protocol: Additional antisense oligonucleotides were designed targeting a PKK nucleic acid and were tested for their effects on PKK mRNA in vitro.
The chimeric antisense oligonucleotides in the tables below were designed as 5-10-5 MOE gapmers, 4-9-4 MOE gapmers, 4-10-4 MOE gapmers, 4-10-3 MOE gapmers, 3-10-4 MOE gapmers, or 3-10-3 MOE gapmers. The 5-10-5 MOE gapmers are 20 nucleosides in length, wherein the central gap segment comprises of ten 2′-deoxynucleosides and is flanked by wing segments on the 5′ direction and the 3′ direction comprising five nucleosides each. The 4-9-4 MOE gapmers are 17 nucleosides in length, wherein the central gap segment comprises of nine 2′-deoxynucleosides and is flanked by wing segments on the 5′ direction and the 3′ direction comprising four nucleosides each. The 4-10-4 MOE gapmers are 18 nucleosides in length, wherein the central gap segment comprises of ten 2′-deoxynucleosides and is flanked by wing segments on the 5′ direction and the 3′ direction comprising four nucleosides each. The 4-10-3 MOE gapmers are 17 nucleosides in length, wherein the central gap segment comprises of ten 2′-deoxynucleosides and is flanked by wing segments on the 5′ direction and the 3′ direction comprising four and three nucleosides respectively. The 3-10-4 MOE gapmers are 17 nucleosides in length, wherein the central gap segment comprises often 2′-deoxynucleosides and is flanked by wing segments on the 5′ direction and the 3′ direction comprising three and four nucleosides respectively. The 3-10-3 MOE gapmers are 16 nucleosides in length, wherein the central gap segment comprises of ten 2′-deoxynucleosides and is flanked by wing segments on the 5′ direction and the 3′ direction comprising three nucleosides each. Each nucleoside in the 5′ wing segment and each nucleoside in the 3′ wing segment has a 2′-O-methoxyethyl modification. The internucleoside linkages throughout each gapmer are phosphorothioate linkages. All cytosine residues throughout each gapmer are 5-methylcytosines. “Start site” indicates the 5′-most nucleoside to which the gapmer is targeted in the human gene sequence. “Stop site” indicates the 3′-most nucleoside to which the gapmer is targeted in the human gene sequence.
Cultured HepaRG™ cells at a density of 20,000 cells per well were transfected using electroporation with 5,000 nM antisense oligonucleotide. After a treatment period of approximately 24 hours, RNA was isolated from the cells and PKK mRNA levels were measured by quantitative real-time PCR. Human primer probe set RTS3454 was used to measure mRNA levels. PKK mRNA levels were adjusted according to total RNA content, as measured by RIBOGREEN®. The antisense oligonucleotides were tested in a series of experiments that had similar culture conditions. Results are presented as percent inhibition of PKK, relative to untreated control cells.

First: 546131 (eA*eT*eG*eA*eA*d[5mC]*dG*dG*dT*d[5mC]*dT*dT*d[5mC]*dA*dA*eG*e[5mC]*eT*eG*eT; antisense) [compound 546131]
Second: 546136 (eG*eG*eA*eG*eG*dT*dG*dA*dG*dT*d[5mC]*dT*d[5mC]*dT*dT*eG*eT*e[5mC]*eA*e[5mC]; antisense) [compound 546136]
The “% inhibition” value of the first is lower: 75% for the first, 86% for the second.

First: 546137 (eA*eT*eT*eG*e[5mC]*dT*dT*d[5mC]*dT*dT*dG*dG*dA*dG*dG*eT*eG*eA*eG*eT; antisense) [compound 546137]
Second: 546138 (eA*eA*eA*e[5mC]*eA*d[5mC]*dA*dA*dT*dT*dG*d[5mC]*dT*dT*d[5mC]*eT*eT*eG*eG*eA; antisense) [compound 546138]
The “% inhibition” value of the first is higher: 76% for the first, 69% for the second.

Compared with “546140 (eG*e[5mC]*eT*eT*eG*d[5mC]*dT*dT*dG*dA*dA*dT*dA*dA*dA*eA*eT*e[5mC]*eA*eT; antisense) [compound 546140]”, “546141 (eG*eA*eA*eA*eT*dA*dA*dG*dT*dT*dG*d[5mC]*dT*dT*dG*e[5mC]*eT*eT*eG*eA; antisense) [compound 546141]” is lower in “% inhibition” value: 60% for the first, 56% for the second.

First: 546143 (eG*eG*eA*eA*eA*d[5mC]*dT*dG*dT*dA*dG*d[5mC]*dA*dA*dA*e[5mC]*eA*eA*eG*eG; antisense) [compound 546143]
Second: 546144 (e[5mC]*eA*e[5mC]*eA*eG*dG*dA*dA*dA*d[5mC]*dT*dG*dT*dA*dG*e[5mC]*eA*eA*eA*e[5mC]; antisense) [compound 546144]
The “% inhibition” value of the first is lower: 46% for the first, 75% for the second.

Going from “546146 (eT*eG*eA*eG*eT*d[5mC]*dA*dG*dA*d[5mC]*dA*dT*d[5mC]*d[5mC]*dA*e[5mC]*eA*eG*eG*eA; antisense) [compound 546146]” to “546147 (eT*e[5mC]*eA*eT*eA*dG*dA*dG*dT*dT*dG*dA*dG*dT*d[5mC]*eA*eG*eA*e[5mC]*eA; antisense) [compound 546147]”, the “% inhibition” value rises from 72% to 76%.

Compared with “546148 (e[5mC]*eG*eT*eT*eT*dT*d[5mC]*dA*dT*dA*dG*dA*dG*dT*dT*eG*eA*eG*eT*e[5mC]; antisense) [compound 546148]”, “546149 (e[5mC]*e[5mC]*e[5mC]*e[5mC]*eA*d[5mC]*d[5mC]*dT*d[5mC]*dT*dG*dA*dA*dG*dA*eA*eG*eG*e[5mC]*eG; antisense) [compound 546149]” is higher in “% inhibition” value: 68% for the first, 83% for the second.

First: 546150 (e[5mC]*eA*eT*e[5mC]*e[5mC]*d[5mC]*d[5mC]*dA*d[5mC]*d[5mC]*dT*d[5mC]*dT*dG*dA*eA*eG*eA*eA*eG; antisense) [compound 546150]
Second: 546151 (eG*eG*eA*eA*eG*d[5mC]*dT*dA*d[5mC]*dA*dT*d[5mC]*d[5mC]*d[5mC]*d[5mC]*eA*e[5mC]*e[5mC]*eT*e[5mC]; antisense) [compound 546151]
The “% inhibition” value of the first is lower: 58% for the first, 76% for the second.

Going from “546152 (eG*eT*eA*e[5mC]*eA*dT*dG*dG*dA*dA*dG*d[5mC]*dT*dA*d[5mC]*eA*eT*e[5mC]*e[5mC]*e[5mC]; antisense) [compound 546152]” to “546153 (eG*eG*eG*eT*eG*dT*dA*d[5mC]*dA*dT*dG*dG*dA*dA*dG*e[5mC]*eT*eA*e[5mC]*eA; antisense) [compound 546153]”, the “% inhibition” value rises from 73% to 76%.

Compared with “546154 (eT*eG*eG*e[5mC]*eA*dG*dT*dA*dT*dT*dG*dG*dG*d[5mC]*dA*eT*eT*eT*eG*eG; antisense) [compound 546154]”, “546155 (e[5mC]*e[5mC]*eT*e[5mC]*eA*dT*d[5mC]*dT*dG*dG*d[5mC]*dA*dG*dT*dA*eT*eT*eG*eG*eG; antisense) [compound 546155]” is lower in “% inhibition” value: 85% for the first, 47% for the second.

Compared with “546156 (eG*eA*eA*eT*eG*dT*dG*d[5mC]*dA*d[5mC]*d[5mC]*dT*d[5mC]*dA*dT*e[5mC]*eT*eG*eG*e[5mC]; antisense) [compound 546156]”, “546157 (eG*eG*eG*eT*eG*dG*dA*dA*dT*dG*dT*dG*d[5mC]*dA*d[5mC]*e[5mC]*eT*e[5mC]*eA*eT; antisense) [compound 546157]” is higher in “% inhibition” value: 81% for the first, 85% for the second.

Going from “546159 (eT*eA*eG*e[5mC]*eA*dA*dA*d[5mC]*dA*d[5mC]*d[5mC]*dT*dT*dG*dG*eG*eT*eG*eG*eA; antisense) [compound 546159]” to “546160 (eA*e[5mC]*eT*eG*eA*dA*dT*dA*dG*d[5mC]*dA*dA*dA*d[5mC]*dA*e[5mC]*e[5mC]*eT*eT*eG; antisense) [compound 546160]”, the “% inhibition” value rises from 76% to 78%.

Compared with “546163 (eA*e[5mC]*eT*eT*eG*d[5mC]*dT*dG*dG*dA*dA*dG*dA*dA*dA*eA*e[5mC]*eT*eG*eA; antisense) [compound 546163]”, “546164 (eT*eG*eA*eT*eT*dG*dA*dA*d[5mC]*dT*dT*dG*d[5mC]*dT*dG*eG*eA*eA*eG*eA; antisense) [compound 546164]” is lower in “% inhibition” value: 42% for the first, 33% for the second.

Compared with “546165 (e[5mC]*eA*eT*eT*eG*dA*dT*dT*dG*dA*dA*d[5mC]*dT*dT*dG*e[5mC]*eT*eG*eG*eA; antisense) [compound 546165]”, “546166 (eT*eG*eT*e[5mC]*eA*dT*dT*dG*dA*dT*dT*dG*dA*dA*d[5mC]*eT*eT*eG*e[5mC]*eT; antisense) [compound 546166]” is lower in “% inhibition” value: 71% for the first, 70% for the second.

First: 546167 (e[5mC]*eT*e[5mC]*e[5mC]*eA*dT*dG*dT*d[5mC]*dA*dT*dT*dG*dA*dT*eT*eG*eA*eA*e[5mC]; antisense) [compound 546167]
Second: 546170 (antisense eG*e[5mC]*eA*eA*e[5mC]*d[5mC]*dA*dA*dA*d[5mC]*d[5mC]*dT*dT*dT*dT*e[5mC]*eT*e[5mC]*e[5mC]*eA) [compound 546170]
The “% inhibition” value of the first is higher: 73% for the first, 54% for the second.

“546171 (antisense e[5mC]*eT*eA*eT*e[5mC]*dT*dT*dT*d[5mC]*dA*dA*dG*dA*dA*dG*e[5mC]*eA*eA*e[5mC]*e[5mC]) [compound 546171]” and “546172 (antisense eA*eA*e[5mC]*eA*e[5mC]*dT*dA*dT*d[5mC]*dT*dT*dT*d[5mC]*dA*dA*eG*eA*eA*eG*e[5mC]) [compound 546172]” are the same in “% inhibition” value: 81% for the first, 81% for the second.

With “546173 (antisense e[5mC]*eG*eA*eT*eG*dT*dA*d[5mC]*dT*dT*dT*dT*dG*dG*d[5mC]*eA*eG*eG*eG*eT) [compound 546173]” the “% inhibition” value was 84%.

Same assay, conditions: HepaRG cells, electroporation with 5,000 nM antisense oligonucleotide, approximately 24 hours, PKK mRNA by RT-PCR (RTS3454), relative to untreated control cells; Table 6 experiment

Going from “546174 (antisense e[5mC]*e[5mC]*eT*eG*eT*dT*d[5mC]*dG*dA*dT*dG*dT*dA*d[5mC]*dT*eT*eT*eT*eG*eG) [compound 546174]” to “546175 (antisense e[5mC]*eT*eG*e[5mC]*eA*d[5mC]*d[5mC]*dT*dG*dT*dT*d[5mC]*dG*dA*dT*eG*eT*eA*e[5mC]*eT) [compound 546175]”, the “% inhibition” value rises from 74% to 78%.

In the case of “546177 (antisense eT*eG*eT*e[5mC]*e[5mC]*dA*dG*dA*dA*dA*d[5mC]*dT*dG*d[5mC]*dA*e[5mC]*e[5mC]*eT*eG*eT) [compound 546177]”, the “% inhibition” value is reported as 75%.
